According to ChEMBL document CHEMBL4507302, “Data for DCP probe TP-020” (2021):

What was measured:
[1] = target: Tyrosine-protein kinase ABL1 (Homo sapiens) (UniProt P00519); details: Compound concentration 1000.0 nM
[2] = target: Activin receptor type-1B (Homo sapiens) (UniProt P36896); details: Compound concentration 1000.0 nM
[3] = target: Activin receptor type-2B (Homo sapiens) (UniProt Q13705); details: Compound concentration 1000.0 nM
[4] = target: Mitogen-activated protein kinase kinase kinase 6 (Homo sapiens) (UniProt O95382); details: Compound concentration 1000.0 nM
Sequence of Mitogen-activated protein kinase kinase kinase 6 (Homo sapiens) (O95382 whole entry): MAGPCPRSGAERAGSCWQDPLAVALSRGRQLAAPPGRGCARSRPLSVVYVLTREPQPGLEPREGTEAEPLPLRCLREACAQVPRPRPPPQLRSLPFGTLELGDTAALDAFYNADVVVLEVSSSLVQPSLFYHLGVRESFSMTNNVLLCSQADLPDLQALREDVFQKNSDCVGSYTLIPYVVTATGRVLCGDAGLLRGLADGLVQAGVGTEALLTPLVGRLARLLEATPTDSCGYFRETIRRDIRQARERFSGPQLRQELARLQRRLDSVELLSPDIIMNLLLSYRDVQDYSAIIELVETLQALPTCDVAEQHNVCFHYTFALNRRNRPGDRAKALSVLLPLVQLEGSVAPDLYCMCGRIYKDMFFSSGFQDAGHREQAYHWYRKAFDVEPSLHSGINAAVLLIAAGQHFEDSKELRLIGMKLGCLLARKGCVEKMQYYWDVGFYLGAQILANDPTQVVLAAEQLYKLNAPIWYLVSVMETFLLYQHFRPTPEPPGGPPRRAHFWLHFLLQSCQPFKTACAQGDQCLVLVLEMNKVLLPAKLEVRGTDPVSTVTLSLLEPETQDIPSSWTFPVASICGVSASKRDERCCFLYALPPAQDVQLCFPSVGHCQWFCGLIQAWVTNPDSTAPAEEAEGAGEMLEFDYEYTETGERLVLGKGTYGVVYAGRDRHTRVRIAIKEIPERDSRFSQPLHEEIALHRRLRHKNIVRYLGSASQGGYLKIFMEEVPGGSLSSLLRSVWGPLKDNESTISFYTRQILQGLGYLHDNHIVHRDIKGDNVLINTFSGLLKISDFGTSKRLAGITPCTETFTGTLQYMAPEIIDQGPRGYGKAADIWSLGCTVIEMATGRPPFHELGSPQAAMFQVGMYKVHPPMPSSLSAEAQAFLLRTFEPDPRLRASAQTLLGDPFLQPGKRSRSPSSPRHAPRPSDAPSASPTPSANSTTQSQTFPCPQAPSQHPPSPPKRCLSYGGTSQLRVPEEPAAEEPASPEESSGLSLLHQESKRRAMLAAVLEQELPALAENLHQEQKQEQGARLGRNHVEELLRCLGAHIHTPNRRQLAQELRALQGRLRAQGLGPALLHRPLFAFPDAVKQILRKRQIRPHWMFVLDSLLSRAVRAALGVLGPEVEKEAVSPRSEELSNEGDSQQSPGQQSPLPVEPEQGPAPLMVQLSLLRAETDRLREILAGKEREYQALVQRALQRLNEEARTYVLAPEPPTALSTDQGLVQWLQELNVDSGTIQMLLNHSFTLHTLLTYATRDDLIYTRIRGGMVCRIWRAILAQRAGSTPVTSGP

[5] = target: Serine/threonine-protein kinase B-raf (Homo sapiens) (UniProt P15056); details: Compound concentration 1000.0 nM
[6] = target: Calcium/calmodulin-dependent protein kinase type 1D (Homo sapiens) (UniProt Q8IU85); details: Compound concentration 1000.0 nM
[7] = target: Cyclin-dependent kinase 13 (Homo sapiens) (UniProt Q14004); details: Compound concentration 1000.0 nM
[8] = target: Macrophage colony-stimulating factor 1 receptor (Homo sapiens) (UniProt P07333); details: Compound concentration 1000.0 nM
[9] = target: Casein kinase I isoform delta (Homo sapiens) (UniProt P48730); details: Compound concentration 1000.0 nM
Sequence of Casein kinase I isoform delta (Homo sapiens) (P48730 whole entry, looked up, canonical isoform): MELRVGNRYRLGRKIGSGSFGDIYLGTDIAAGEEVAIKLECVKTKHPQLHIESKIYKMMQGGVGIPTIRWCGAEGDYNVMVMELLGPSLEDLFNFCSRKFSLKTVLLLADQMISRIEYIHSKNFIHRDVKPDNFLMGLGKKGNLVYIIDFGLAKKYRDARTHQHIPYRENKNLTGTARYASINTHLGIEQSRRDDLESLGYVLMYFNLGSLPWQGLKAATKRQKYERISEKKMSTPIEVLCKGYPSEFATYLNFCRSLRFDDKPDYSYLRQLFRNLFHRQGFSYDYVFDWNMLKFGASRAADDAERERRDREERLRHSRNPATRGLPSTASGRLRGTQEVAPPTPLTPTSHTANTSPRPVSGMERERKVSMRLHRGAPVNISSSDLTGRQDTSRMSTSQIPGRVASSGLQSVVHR

[10] = target: Myotonin-protein kinase (Homo sapiens) (UniProt Q09013); details: Compound concentration 1000.0 nM
[11] = target: Serine/threonine-protein kinase 17A (Homo sapiens) (UniProt Q9UEE5); details: Compound concentration 1000.0 nM
[12] = target: Ephrin type-A receptor 2 (Homo sapiens) (UniProt P29317); details: Compound concentration 1000.0 nM
Sequence of Ephrin type-A receptor 2 (Homo sapiens) (P29317 whole entry): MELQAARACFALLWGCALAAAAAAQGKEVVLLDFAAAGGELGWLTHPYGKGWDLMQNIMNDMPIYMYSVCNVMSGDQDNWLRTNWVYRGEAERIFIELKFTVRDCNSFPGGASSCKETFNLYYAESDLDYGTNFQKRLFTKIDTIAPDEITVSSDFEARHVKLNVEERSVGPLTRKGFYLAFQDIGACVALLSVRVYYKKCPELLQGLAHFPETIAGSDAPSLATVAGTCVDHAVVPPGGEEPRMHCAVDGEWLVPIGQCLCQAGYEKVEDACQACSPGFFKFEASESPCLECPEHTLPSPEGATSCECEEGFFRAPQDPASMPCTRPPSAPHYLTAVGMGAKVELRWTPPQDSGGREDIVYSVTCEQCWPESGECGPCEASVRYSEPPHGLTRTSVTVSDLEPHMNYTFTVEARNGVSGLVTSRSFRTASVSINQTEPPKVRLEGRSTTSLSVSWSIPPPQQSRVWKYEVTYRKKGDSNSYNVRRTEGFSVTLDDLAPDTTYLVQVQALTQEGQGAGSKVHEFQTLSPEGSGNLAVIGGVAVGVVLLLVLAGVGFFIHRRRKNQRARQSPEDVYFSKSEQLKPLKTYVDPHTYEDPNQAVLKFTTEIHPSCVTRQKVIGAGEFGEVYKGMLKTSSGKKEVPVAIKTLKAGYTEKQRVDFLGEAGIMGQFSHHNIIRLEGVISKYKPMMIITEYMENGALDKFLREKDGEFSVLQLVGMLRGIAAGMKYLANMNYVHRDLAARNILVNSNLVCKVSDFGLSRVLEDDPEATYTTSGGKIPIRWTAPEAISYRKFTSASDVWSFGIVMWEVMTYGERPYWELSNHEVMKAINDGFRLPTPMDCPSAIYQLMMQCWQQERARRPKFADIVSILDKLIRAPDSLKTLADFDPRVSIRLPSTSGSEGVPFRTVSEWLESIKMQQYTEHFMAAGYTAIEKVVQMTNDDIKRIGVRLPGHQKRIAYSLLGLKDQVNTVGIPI

[13] = target: Mitogen-activated protein kinase 15 (Homo sapiens) (UniProt Q8TD08); details: Compound concentration 1000.0 nM
[14] = target: Fibroblast growth factor receptor 1 (Homo sapiens) (UniProt P11362); details: Compound concentration 1000.0 nM
[15] = target: Cyclin-G-associated kinase (Homo sapiens) (UniProt O14976); details: Compound concentration 1000.0 nM
[16] = target: G protein-coupled receptor kinase 3 (Homo sapiens) (UniProt P35626); details: Compound concentration 1000.0 nM
[17] = target: Glycogen synthase kinase-3 alpha (Homo sapiens) (UniProt P49840); details: Compound concentration 1000.0 nM
[18] = target: Interleukin-1 receptor-associated kinase 3 (Homo sapiens) (UniProt Q9Y616); details: Compound concentration 1000.0 nM
[19] = tested on: Mast/stem cell growth factor receptor Kit (Homo sapiens), P10721 [A829P]; details: Compound concentration 1000.0 nM
Sequence of Mast/stem cell growth factor receptor Kit (Homo sapiens), P10721 [A829P] (P10721 whole entry A829P): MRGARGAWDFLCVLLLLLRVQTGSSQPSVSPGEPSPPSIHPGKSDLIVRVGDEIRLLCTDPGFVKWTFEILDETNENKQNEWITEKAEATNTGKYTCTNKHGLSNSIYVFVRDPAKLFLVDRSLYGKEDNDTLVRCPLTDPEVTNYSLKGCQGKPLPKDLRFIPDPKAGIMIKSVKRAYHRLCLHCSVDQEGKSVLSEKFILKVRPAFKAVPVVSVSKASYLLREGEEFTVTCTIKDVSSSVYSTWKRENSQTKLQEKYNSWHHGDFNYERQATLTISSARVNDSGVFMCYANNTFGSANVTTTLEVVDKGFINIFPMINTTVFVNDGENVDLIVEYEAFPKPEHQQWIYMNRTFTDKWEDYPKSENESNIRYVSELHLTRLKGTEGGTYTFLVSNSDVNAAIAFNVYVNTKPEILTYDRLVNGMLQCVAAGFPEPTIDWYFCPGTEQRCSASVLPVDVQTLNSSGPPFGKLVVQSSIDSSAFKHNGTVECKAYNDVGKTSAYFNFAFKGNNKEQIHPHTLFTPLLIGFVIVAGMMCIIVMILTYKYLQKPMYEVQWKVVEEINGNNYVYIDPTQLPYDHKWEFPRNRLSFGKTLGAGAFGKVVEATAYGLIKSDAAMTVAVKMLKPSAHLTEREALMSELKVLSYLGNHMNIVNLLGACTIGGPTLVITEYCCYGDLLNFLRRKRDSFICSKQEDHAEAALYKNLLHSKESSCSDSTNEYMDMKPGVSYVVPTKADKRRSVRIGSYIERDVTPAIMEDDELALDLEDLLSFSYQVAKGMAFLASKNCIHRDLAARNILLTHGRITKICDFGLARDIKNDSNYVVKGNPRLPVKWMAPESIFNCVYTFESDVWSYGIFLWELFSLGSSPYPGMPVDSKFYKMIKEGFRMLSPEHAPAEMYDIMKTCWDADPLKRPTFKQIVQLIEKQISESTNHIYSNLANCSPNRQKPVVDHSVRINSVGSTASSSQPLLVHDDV

[20] = tested on: Mast/stem cell growth factor receptor Kit (Homo sapiens), P10721 [L576P]; details: Compound concentration 1000.0 nM
Sequence of Mast/stem cell growth factor receptor Kit (Homo sapiens), P10721 [L576P] (P10721 whole entry L576P): as the sequence (P10721 whole entry A829P) above, with L576P, P829A counted along it

[21] = target: Leucine-rich repeat serine/threonine-protein kinase 2 (Homo sapiens) (UniProt Q5S007); details: Compound concentration 1000.0 nM
[22] = target: Serine/threonine-protein kinase MARK1 (Homo sapiens) (UniProt Q9P0L2); details: Compound concentration 1000.0 nM
[23] = target: Misshapen-like kinase 1 (Homo sapiens) (UniProt Q8N4C8); details: Compound concentration 1000.0 nM
[24] = target: Serine/threonine-protein kinase 4 (Homo sapiens) (UniProt Q13043); details: Compound concentration 1000.0 nM
[25] = target: Serine/threonine-protein kinase 38 (Homo sapiens) (UniProt Q15208); details: Compound concentration 1000.0 nM
[26] = target: Cyclin-dependent kinase 15 (Homo sapiens) (UniProt Q96Q40); details: Compound concentration 1000.0 nM
[27] = target: Phosphatidylinositol 4-phosphate 5-kinase type-1 gamma (Homo sapiens) (UniProt O60331); details: Compound concentration 1000.0 nM
[28] = target: RAF proto-oncogene serine/threonine-protein kinase (Homo sapiens) (UniProt P04049); details: Compound concentration 1000.0 nM
[29] = target: Receptor-interacting serine/threonine-protein kinase 1 (Homo sapiens) (UniProt Q13546); details: Compound concentration 1000.0 nM
[30] = target: Receptor-interacting serine/threonine-protein kinase 2 (Homo sapiens) (UniProt O43353); details: Compound concentration 1000.0 nM
[31] = target: Proto-oncogene tyrosine-protein kinase ROS (Homo sapiens) (UniProt P08922); details: Compound concentration 1000.0 nM
[32] = target: Ribosomal protein S6 kinase alpha-5 (Homo sapiens) (UniProt O75582); details: Compound concentration 1000.0 nM
[33] = target: Ribosomal protein S6 kinase alpha-6 (Homo sapiens) (UniProt Q9UK32); details: Compound concentration 1000.0 nM
[34] = target: Serine/threonine-protein kinase Sgk1 (Homo sapiens) (UniProt O00141); details: Compound concentration 1000.0 nM
[35] = target: Serine/threonine-protein kinase Sgk3 (Homo sapiens) (UniProt Q96BR1); details: Compound concentration 1000.0 nM
[36] = target: SNF-related serine/threonine-protein kinase (Homo sapiens) (UniProt Q9NRH2); details: Compound concentration 1000.0 nM
Sequence of SNF-related serine/threonine-protein kinase (Homo sapiens) (Q9NRH2 whole entry): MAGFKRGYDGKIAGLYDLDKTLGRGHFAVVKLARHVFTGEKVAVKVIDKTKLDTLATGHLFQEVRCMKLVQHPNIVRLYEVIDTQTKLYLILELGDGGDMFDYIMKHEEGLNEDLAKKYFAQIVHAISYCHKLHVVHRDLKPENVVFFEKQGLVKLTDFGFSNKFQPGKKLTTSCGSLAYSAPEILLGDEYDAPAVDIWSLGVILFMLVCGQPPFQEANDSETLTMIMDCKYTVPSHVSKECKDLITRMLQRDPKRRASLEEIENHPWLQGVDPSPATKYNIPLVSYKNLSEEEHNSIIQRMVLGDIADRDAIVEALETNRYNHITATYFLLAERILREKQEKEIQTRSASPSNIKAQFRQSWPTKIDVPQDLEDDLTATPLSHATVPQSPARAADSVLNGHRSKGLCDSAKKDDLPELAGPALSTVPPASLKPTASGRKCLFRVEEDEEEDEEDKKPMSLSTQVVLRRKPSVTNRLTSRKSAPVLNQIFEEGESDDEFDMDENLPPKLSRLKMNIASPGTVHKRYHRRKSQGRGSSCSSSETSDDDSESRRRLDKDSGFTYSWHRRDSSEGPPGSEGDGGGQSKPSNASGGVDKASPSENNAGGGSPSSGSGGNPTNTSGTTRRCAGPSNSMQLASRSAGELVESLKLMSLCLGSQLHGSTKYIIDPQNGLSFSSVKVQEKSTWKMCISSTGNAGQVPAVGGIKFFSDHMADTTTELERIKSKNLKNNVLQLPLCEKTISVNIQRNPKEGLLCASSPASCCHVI

[37] = target: Serine/threonine-protein kinase TAO2 (Homo sapiens) (UniProt Q9UL54); details: Compound concentration 1000.0 nM
[38] = target: Serine/threonine-protein kinase TAO3 (Homo sapiens) (UniProt Q9H2K8); details: Compound concentration 1000.0 nM
[39] = target: Serine/threonine-protein kinase tousled-like 2 (Homo sapiens) (UniProt Q86UE8); details: Compound concentration 1000.0 nM
[40] = target: Dual specificity protein kinase TTK (Homo sapiens) (UniProt P33981); details: Compound concentration 1000.0 nM
[41] = target: Vascular endothelial growth factor receptor 2 (Homo sapiens) (UniProt P35968); details: Compound concentration 1000.0 nM
[42] = target: Serine/threonine-protein kinase VRK2 (Homo sapiens) (UniProt Q86Y07); details: Compound concentration 1000.0 nM
Sequence of Serine/threonine-protein kinase VRK2 (Homo sapiens) (Q86Y07 whole entry): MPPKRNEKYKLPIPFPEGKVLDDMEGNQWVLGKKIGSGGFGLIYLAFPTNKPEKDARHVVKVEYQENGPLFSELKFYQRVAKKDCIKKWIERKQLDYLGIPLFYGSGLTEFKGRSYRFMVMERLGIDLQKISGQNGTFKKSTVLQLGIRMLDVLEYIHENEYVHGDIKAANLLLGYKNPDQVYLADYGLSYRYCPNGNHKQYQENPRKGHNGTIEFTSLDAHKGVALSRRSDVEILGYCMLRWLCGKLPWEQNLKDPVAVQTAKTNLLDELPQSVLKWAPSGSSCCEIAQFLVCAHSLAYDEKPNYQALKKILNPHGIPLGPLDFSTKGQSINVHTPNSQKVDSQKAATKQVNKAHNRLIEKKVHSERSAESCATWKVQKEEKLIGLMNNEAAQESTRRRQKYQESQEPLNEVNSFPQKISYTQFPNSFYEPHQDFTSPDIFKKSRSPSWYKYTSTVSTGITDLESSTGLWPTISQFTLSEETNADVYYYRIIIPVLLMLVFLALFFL

[43] = target: Serine/threonine-protein kinase WNK2 (Homo sapiens) (UniProt Q9Y3S1); details: Compound concentration 1000.0 nM
[44] = target: 5-hydroxytryptamine receptor 7 (Homo sapiens) (UniProt P34969); details: Compound concentration 10.0 uM
[45] = target: Sodium-dependent serotonin transporter (Homo sapiens) (UniProt P31645); details: Compound concentration 10.0 uM
[46] = target: Alpha-1D adrenergic receptor (Homo sapiens) (UniProt P25100); details: Compound concentration 10.0 uM

Nc1cnc(N2CCc3cc(S(=O)(=O)Nc4c(F)cc(Cl)cc4F)cc(N4CCCC4=O)c32)nc1
inactive: residual activity [1] 100% | residual activity [2] 96% | residual activity [3] 80% | residual activity [4] 75% | residual activity [5] 98% | residual activity [6] 97% | residual activity [7] 100% | residual activity [8] 100% | residual activity [9] 98% | residual activity [10] 100% | residual activity [11] 100% | residual activity [12] 100% | residual activity [13] 84% | residual activity [14] 88% | residual activity [15] 100% | residual activity [16] 100% | residual activity [17] 100% | residual activity [18] 89% | residual activity [19] 100% | residual activity [20] 83% | residual activity [21] 97% | residual activity [22] 76% | residual activity [23] 100% | residual activity [24] 100% | residual activity [25] 99% | residual activity [26] 80% | residual activity [27] 75% | residual activity [28] 79% | residual activity [29] 92% | residual activity [30] 53% | residual activity [31] 99% | residual activity [32] 100% | residual activity [33] 100% | residual activity [34] 100% | residual activity [35] 100% | residual activity [36] 100% | residual activity [37] 78% | residual activity [38] 70% | residual activity [39] 79% | residual activity [40] 90% | residual activity [41] 81% | residual activity [42] 100% | residual activity [43] 100% | inhibition [44] 0.94% | inhibition [45] 9.34% | inhibition [46] -2.31%

Cn1nc(C(F)(F)F)cc1-c1cnc(N2CCc3cc(S(=O)(=O)Nc4c(F)cc(Cl)cc4F)cc(N4CCCC4=O)c32)nc1 [TP-020]
inactive: residual activity [1] 73% | residual activity [2] 96% | residual activity [3] 87% | residual activity [4] 67% | residual activity [5] 82% | residual activity [6] 99% | residual activity [7] 79% | residual activity [8] 82% | residual activity [9] 94% | residual activity [10] 82% | residual activity [11] 83% | residual activity [12] 100% | residual activity [13] 78% | residual activity [14] 99% | residual activity [15] 94% | residual activity [16] 82% | residual activity [17] 95% | residual activity [18] 100% | residual activity [19] 80% | residual activity [20] 93% | residual activity [21] 79% | residual activity [22] 92% | residual activity [23] 99% | residual activity [24] 92% | residual activity [25] 97% | residual activity [26] 100% | residual activity [27] 93% | residual activity [28] 100% | residual activity [29] 100% | residual activity [30] 82% | residual activity [31] 100% | residual activity [32] 97% | residual activity [33] 84% | residual activity [34] 100% | residual activity [35] 78% | residual activity [36] 87% | residual activity [37] 100% | residual activity [38] 93% | residual activity [39] 94% | residual activity [40] 97% | residual activity [41] 87% | residual activity [42] 61% | residual activity [43] 81% | inhibition [44] 4.51% | inhibition [45] 0.95% | inhibition [46] -4.04%
